Experimental data published in patent publication US9596855B2, “Small molecule inhibitors of biofilm formation and the novel use of previously identified compounds for inhibition of biofilm formation and applications for drug therapy and medical device coating” (priority 2013, dated 2017).

Tests used:
[1] = test system: tested strains; experiment: bactericidal activity against tested strains; format: cell-based; conditions: any of the tested strains
[2] = test system: V. cholerae; experiment: co-dosing of biofilm inhibitor with sub-MIC and sub-BIC antibiotics, image-based screen
[3] = test system: HeLa cells; experiment: mammalian cell cytotoxicity; format: cell-based; conditions: up to the highest tested concentration (250 μM)
[4] = test system: V. cholerae; experiment: image-based biofilm inhibition screening platform; format: cell-based
Method: In the present study, a 1,248-member prefractionated marine natural product library was evaluated for biofilm inhibitory activity using a recently-developed image-based screening platform. […] Prefraction 1671D is a semi-purified mixture that contains mixture of several individual compounds. Prefraction 1671D was therefore subjected to one-compound-one-well ‘peak library’ fractionation using the inventors' standard protocol that automatically separates the constituents of prefractions of interest based on HPLC retention times, and connects specific constituents to observed biological activities through secondary screening.
This activity was coupled with a striking biofilm macrocolony phenotype, providing strong justification for purification and full structural characterization of the active constituent. It was from 1671D that “compound 5” was isolated.

C=C1Oc2cc(OC)cc(C(=O)OC)c2NC1=O [Compound 5]
bactericidal activity [1]: no bactericidal activity | biofilm-clearing efficacy ([2]; with sub-BIC concentrations of ceftazidime): improve | biofilm-clearing efficacy ([2]; with sub-BIC concentrations of ciprofloxacin): improve | mammalian cell cytotoxicity [3]: no mammalian cell cytotoxicity | IC50 ([4]; Vibrio cholerae, read-out: biofilm inhibitory activity (IC50)): 60.1 µM | biofilm phenotype (epifluorescence and confocal images) ([4]; on treatment with compound): micro-colonies initially become less organized and less tightly packed
